According to patent publication US20080214518A1, “Pharmaceutical Composition Comprising an Anti-Bacterial Agent and an Active Ingredient Selected From Carveol, Thymol, Eugenol, Borneol and Carvacrol” (priority 2005, published 2008):
Values after ≈ are worked out from the molar mass of the structure shown. Like-named read-outs stand apart in the source and are kept apart here. Each block holds one compound with its values, some of them ahead of it.

What was measured:
[1] = tested on: Staphylococcus epidermidis; assay: Static tests to determine MIC and MBC; assay type: cell-based; settings: for MIC: antibiotic alone
Protocol: (§1) The experiment was carried out with several Gram-negative and Gram-positive bacterial strains with different susceptibilities isolated in the hospital environment.
Antibacterial pharmaceutical compositions according to the invention were prepared by mixing amoxicillin at different concentrations with carveol at a sub-inhibitory concentration of 0.3 g per liter of solution or excipient (equivalent to 0.3 mg/ml). The minimal concentration of amoxicillin in combination with carveol 0.3 mg/ml that produced a bactericidal effect was determined. In each case, antibiotic activity was determined either with amoxicillin alone, or with carveol alone, or with the composition of the invention. […]

Staphylococcus aureus = assay: Static tests to determine MIC and MBC; assay type: cell-based; settings: carveol alone
Protocol: as §1
(§2) Antibacterial pharmaceutical compositions according to the invention were prepared by mixing amoxicillin at different concentrations with carveol at a sub-inhibitory concentration of 0.3 g per liter of solution or excipient (equivalent to 0.3 mg/ml). The minimal concentration of amoxicillin in combination with carveol 0.3 mg/ml that produced a bactericidal effect was determined. In each case, antibiotic activity was determined either with amoxicillin alone, or with carveol alone, or with the composition of the invention.
(§3) The experiment was carried out with several resistant bacterial strains isolated in the hospital environment. The antibiotic used was chlortetracycline, one of the oldest antibiotics. An antibiotic pharmaceutical composition according to the invention was prepared by mixing chlortetracycline at different concentrations with carveol at a sub-inhibitory concentration of 0.3 g per liter of solution or excipient. […] In each case, antibiotic activity was determined either with chlortetracycline alone, or with carveol alone, or with the composition of the invention.
as §3, with “streptomycin, an important member” for “chlortetracycline, one”, “aminoside family which is among the most important” for “oldest”, “streptomycin” for “chlortetracycline”
as §3, with “erythromycin, an important member” for “chlortetracycline, one”, “macrolide family which is among the most important” for “oldest”, “erythromycin” for “chlortetracycline”

Escherichia coli = assay: Static tests to determine MIC and MBC; assay type: cell-based; settings: for MIC: antibiotic alone
Protocol: as §1, §2
(§4) The experiment was carried out with several resistant bacterial strains isolated in the hospital environment. The antibiotic used was ampicillin, from the beta-lactam family, which is one of the most widely used antibiotics. An antibiotic pharmaceutical composition according to the invention was prepared by mixing ampicillin at different concentrations with carveol at a sub-inhibitory concentration of 0.3 g per liter of solution or excipient. This pharmaceutical composition of the invention was named Ampi-P, for potentiated ampicillin. In each case, antibiotic activity was determined either with ampicillin alone, or with carveol alone, or with the composition of the invention.
(§5) The experiment was carried out with several resistant bacterial strains isolated in the hospital environment. The antibiotic used was cephazolin, from the cephalosporin family, another class of beta-lactams which are among the most widely used antibiotics. An antibiotic pharmaceutical composition according to the invention was prepared by mixing cephazolin at different concentrations with alpha-ionone and beta-ionone at a sub-inhibitory concentration of 0.3 g per liter of solution or excipient. This pharmaceutical composition of the invention was named Cepha-P, for potentiated cephazolin. In each case, antibiotic activity was determined either with cephazolin alone, or with alpha-ionone or beta-ionone alone, or with the composition of the invention.
as §4, with “polymyxin B,” for “ampicillin,”, “peptide” for “beta-lactam”, “oldest” for “most widely used”, “polymyxin B” for “ampicillin”, “Polymix-P,” for “Ampi-P,”, “polymyxin B.” for “ampicillin.”
as §4, with “chloramphenicol,” for “ampicillin,”, “phenicol” for “beta-lactam”, “oldest” for “most widely used”, “chloramphenicol” for “ampicillin”, “Chloram-P,” for “Ampi-P,”, “chloramphenicol.” for “ampicillin.”
(§6) The experiment was carried out with several resistant bacterial strains isolated in the hospital environment. The antibiotic used was chlortetracycline, one of the oldest antibiotics. An antibiotic pharmaceutical composition according to the invention was prepared by mixing chlortetracycline at different concentrations with carveol at a sub-inhibitory concentration of 0.3 g per liter of solution or excipient.

Bacillus subtilis = assay: Static tests to determine MIC and MBC; assay type: cell-based; settings: for MIC: antibiotic alone
Protocol: as §1, §2, §4, §5
as §4, with “polymyxin B,” for “ampicillin,”, “peptide” for “beta-lactam”, “oldest” for “most widely used”, “polymyxin B” for “ampicillin”, “Polymix-P,” for “Ampi-P,”, “polymyxin B.” for “ampicillin.”
as §4, with “chloramphenicol,” for “ampicillin,”, “phenicol” for “beta-lactam”, “oldest” for “most widely used”, “chloramphenicol” for “ampicillin”, “Chloram-P,” for “Ampi-P,”, “chloramphenicol.” for “ampicillin.”
as §6

Salmonella typhimurium = assay: Static tests to determine MIC and MBC; assay type: cell-based; settings: for MIC: antibiotic alone
Protocol: as §1, §2, §4, §5
as §4, with “polymyxin B,” for “ampicillin,”, “peptide” for “beta-lactam”, “oldest” for “most widely used”, “polymyxin B” for “ampicillin”, “Polymix-P,” for “Ampi-P,”, “polymyxin B.” for “ampicillin.”
as §4, with “chloramphenicol,” for “ampicillin,”, “phenicol” for “beta-lactam”, “oldest” for “most widely used”, “chloramphenicol” for “ampicillin”, “Chloram-P,” for “Ampi-P,”, “chloramphenicol.” for “ampicillin.”
as §6

Klebsiella pneumoniae = assay: Static tests to determine MBC; assay type: cell-based; settings: carveol alone, Table 1
Protocol: as §1, §2

[2] = tested on: Escherichia coli strains susceptible to 5 μg/ml amoxicillin; assay type: cell-based
Protocol: Escherichia coli strains susceptible to 5 μg/ml amoxicillin were cultured in the presence of a sub-inhibitory concentration of 3 μg/ml, then seeded into nutrient medium (Muller Hinton) containing increasing concentrations of amoxicillin (4 then 5 then 6 μg/ml . . . ). The same procedure was carried out with amoxicillin potentiated by carvacrol at a concentration two times lower than the MIC of carvacrol alone, namely 500 μg/ml. This experiment was based on the principle that at each subcloning, a mutant resistant to the new amoxicillin concentration would multiply, giving rise to a strain more resistant than the strain from which the subcloning arose.

[3] = tested on: amoxicillin-resistant Klebsiella pneumoniae; assay: In vivo test in mice experimentally infected by intraperitoneal injection; settings: organs of mice which died during the experiment; amoxicillin alone 10 mg/kg/day by gavage
Protocol: Groups of 10 mice were experimentally infected by intraperitoneal injection of 1,000,000 cells (colony-forming units) of amoxicillin-resistant Klebsiella pneumoniae.
The first group was composed of control mice which were infected and untreated.
The second group was composed of infected mice treated by gavage, 24 h post-infection, with amoxicillin alone at a dose of 10 mg/kg of body weight/day.
The third group was composed of infected mice treated by gavage, 24 h post-infection, with carveol alone at a dose of 120 mg/kg of body weight/day.
The fourth group was composed of infected mice treated by gavage, 24 h post-infection, with the pharmaceutical composition of the invention (AMOX-P) at a dose of 2 mg/kg of body weight/day of amoxicillin and 120 mg/kg of body weight/day of carveol.
The survival rate was measured over time. […] All the other mice died between the second and third day post-infection.

Mycobacterium fleii = assay: Static tests to determine MIC and MBC; assay type: cell-based
Mycobacterium fortuitum = assay: Static tests to determine MIC and MBC; assay type: cell-based; settings: Mycolicibacterium fortuitum
[4] = tested on: bacterial strains isolated in the hospital environment; assay: Static MIC/MBC tests, potentiation over all tested strains; assay type: cell-based; settings: antibiotic combined with carveol, alpha-ionone or beta-ionone at 0.3 mg/ml
Protocol: as §1, §2
The experiment was carried out with several resistant bacterial strains isolated in the hospital environment. The antibiotic used was ampicillin, from the beta-lactam family, which is one of the most widely used antibiotics. […] In each case, antibiotic activity was determined either with ampicillin alone, or with carveol alone, or with the composition of the invention.
The experiment was carried out with several resistant bacterial strains isolated in the hospital environment. […] In each case, antibiotic activity was determined either with cephazolin alone, or with alpha-ionone or beta-ionone alone, or with the composition of the invention.
The experiment was carried out with several resistant bacterial strains isolated in the hospital environment. […] This pharmaceutical composition of the invention was named Polymix-P, for potentiated polymyxin B. In each case, antibiotic activity was determined either with polymyxin B alone, or with carveol alone, or with the composition of the invention.
The experiment was carried out with several resistant bacterial strains isolated in the hospital environment. […] In each case, antibiotic activity was determined either with chloramphenicol alone, or with carveol alone, or with the composition of the invention. […]

[5] = first substance alone, exponential growth phase
[6] = starting from 3 μg/ml, potentiated: carvacrol 500 μg/ml

Compound: C=C(C)C1CC=C(C)C(O)C1 (mixture of isomers) [Carveol, carveol]
MBC ([1]; Staphylococcus epidermidis, carveol alone, Table 1, read-out: MBC): 2000 µg/mL
MBC [1, 5]: 2000 µg/mL
MBC (Staphylococcus aureus; Staphylococcus aureus, Table 1, read-out: MBC): 2000 µg/mL
MBC (Staphylococcus aureus; exponential growth phase): 2000 µg/mL
MBC (Escherichia coli; Escherichia coli, carveol alone, Table 1, read-out: MBC): 2000 µg/mL
MBC (Escherichia coli; [5]): 2000 µg/mL
MBC (Bacillus subtilis; Bacillus subtilis, carveol alone, Table 1, read-out: MBC): 2000 µg/mL
MBC (Bacillus subtilis; [5]): 2000 µg/mL
MBC (Salmonella typhimurium; Salmonella enterica, TYPHIMURIUM, carveol alone, Table 1, read-out: MBC): 2000 µg/mL
MBC (Salmonella typhimurium; [5]): 2000 µg/mL
MBC (Klebsiella pneumoniae): 2000 µg/mL

Compound: CC(=O)/C=C/C1C(C)=CCCC1(C)C (stereo not drawn) [Alpha-ionone, alpha-ionone]
MBC [1, 5]: 2000 µg/mL
MBC (Escherichia coli; [5]): 2000 µg/mL
MBC (Bacillus subtilis; [5]): 2000 µg/mL
MBC (Salmonella typhimurium; [5]): 2000 µg/mL

Compound: CC1(C)S[C@@H]2[C@H](NC(=O)[C@H](N)c3ccc(O)cc3)C(=O)N2[C@H]1C(=O)O [Amoxicillin, amoxicillin]
Final conc. (to which resistant mutants were selected) ([2]; 50 μg/ml was the highest concentration in the experiment): 50 µg/mL
No. of subclonings (to reach final conc.) ([2]; starting from 3 μg/ml): 9
Median conc. (to which resistant mutants were selected) [2, 6]: 17 µg/mL
No. of subclonings (to reach median conc.) [2, 6]: 4
Klebsiella pneumoniae loads in kidney, lung and bone marrow [3]: high loads

MIC ([1]; Staphylococcus epidermidis, exponential growth phase, read-out: MIC): > 50 µg/mL
MIC (Escherichia coli; Escherichia coli, exponential growth phase, read-out: MIC): > 50 µg/mL
MIC (Bacillus subtilis; Bacillus subtilis, exponential growth phase, read-out: MIC): > 50 µg/mL
MIC (Salmonella typhimurium; Salmonella enterica, TYPHIMURIUM, exponential growth phase, read-out: MIC): > 50 µg/mL
Compound: CC1(C)S[C@@H]2[C@H](NC(=O)[C@H](N)c3ccccc3)C(=O)N2[C@H]1C(=O)O [Ampicillin, ampicillin]

Compound: CC(=O)/C=C/C1=C(C)CCCC1(C)C [Beta-ionone, beta-ionone]
MBC [1, 5]: 2000 µg/mL
MBC (Escherichia coli; [5]): 2000 µg/mL
MBC (Bacillus subtilis; [5]): 2000 µg/mL
MBC (Salmonella typhimurium; [5]): 2000 µg/mL

Compound: Cc1ccc(C(C)C)cc1O [Carvacrol, carvacrol]
MBC (Mycobacterium fleii): 1000 µg/mL (≈ 6.66 mM)
MBC (Mycobacterium fortuitum): 1000 µg/mL (≈ 6.66 mM)

MIC ([1]; exponential growth phase): >50 µg/mL
MIC (Escherichia coli; exponential growth phase): >50 µg/mL
MIC (Bacillus subtilis; exponential growth phase): >50 µg/mL
MIC (Salmonella typhimurium; exponential growth phase): >50 µg/mL
Compound: Cc1nnc(SCC2=C(C(=O)O)N3C(=O)[C@@H](NC(=O)Cn4cnnn4)[C@H]3SC2)s1 [Cephazolin, cephazolin]
times lower antibiotic concentration producing bactericidal activity versus antibiotic alone [4]: at least ten
